What was measured:
[1] = target: T1, RhoA binding to Citron-RBD (Homo sapiens, UniProt O14578); assay: Affinity-precipitation (pull-down) of GTP-Val14-RhoA with Citron GST-RBD; conditions: 20 μg of domain, anti-RhoA immunoblot
T1 sequence (O14578 1091-1302 limits assumed): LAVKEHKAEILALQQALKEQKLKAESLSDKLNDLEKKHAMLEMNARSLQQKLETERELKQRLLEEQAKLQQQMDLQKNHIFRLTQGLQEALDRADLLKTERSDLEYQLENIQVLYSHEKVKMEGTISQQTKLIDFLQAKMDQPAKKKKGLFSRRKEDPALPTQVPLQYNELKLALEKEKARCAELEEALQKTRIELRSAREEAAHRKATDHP
Method: (§1) Specificity of RhoA fusion domains and measurement of RhoA activation. The specificity of P1-RhoA fusion domains was evaluated by affinity-precipitation assay using the rho-binding domain (RBD) from Citron, Rhotekin and ROCK. Recombinant Val14-RhoA was loaded with 1 mM GTP at 37° C. for 90 min. 10 μg of Citron, Rhotekin or ROCK GST-RBD conjugated with glutathione beads were mixed with 5 μg of GTP-Val14-RhoA in […] of 50 mM Tris-HCl (pH 7.4), 5 mM MgCl2, 0.5 mM GTP, 2 mg/ml BSA (binding buffer). Binding was for 60 min. at 15° C. The beads were washed twice with binding buffer and subjected to SDS-polyacrylamide gel electrophoresis on a 12% gel. RhoA background binding to glutathione beads was negligible. In case of experiments in presence of P1-RhoA fusion domains, the domains were previously dissolved in binding buffer at 1 mg/ml.

[2] = tested on: CCL21-induced LFA-1-dependent lymphocyte adhesion to ICAM-1; assay: In vitro rapid adhesion assay on ICAM-1; assay type: cell-based, mouse; conditions: 1 μM CCL21; for rapid adhesion induced by CCL21 on high density of ICAM-1: high density of ICAM-1 (˜5000 sites/μm^2); for rapid adhesion induced by CCL21 on low density of ICAM-1: low density of ICAM-1 (−500 sites/μm^2)
Method: In vitro rapid adhesion assay on ICAM-1. ICAM-1 was purified from mouse spleens and adhesion assays were performed as previously reported. Briefly, primary naïve lymphocytes (about 70% T-, 30% B-cells) were isolated from peripheral and mesenteric lymph nodes and Peyer's patches from young BALB/c mice (Harlan, Italy). Adhesion assays were performed on eighteen well glass slides coated overnight at 4° C. with purified mouse ICAM-1; site density per square micrometer of immobilized ICAM-1 was calculated as reported.

[3] = tested on: LFA-1 lateral mobility; assay: LFA-1 distribution on plasma membrane (confocal microscopy); assay type: cell-based, mouse; conditions: 1 μM CCL21 2 min
Method: Evaluation of LFA-1 distribution on plasma membrane. Analysis and quantification of chemokine-induced LFA-1 surface distribution was determined by confocal microscopy, following the same procedure previously described. Briefly, lymphocytes were stimulated in suspension under stirring and then immediately fixed in 1% ice-cold paraformaldehyde in PBS, pH 7.4, for 10 min. Cell were washed and incubated with 10 μg/ml of TIB213 rat anti-mouse LFA-1 (ATCC) for 30 min on ice, washed 3 times and then incubated 30 min with Texas Red-conjugated goat anti-rat secondary antibody. The washed cells adhered for 30 min at 4° C. on 0.1% poly-L-lysine coated round 13 mm glass coverslips and were analyzed with a Carl Zeiss LSM 510 confocal imaging system, with a 63×C-Apochromat objective (NA 1.2). Definition and quantitative analysis of “disperse” and “clustered” morphologies of LFA-1 distribution was as previously described.

[4] = tested on: ζ PKC translocation to the plasma membrane; assay: ζ PKC intracellular distribution (sucrose gradient, immunoblot); assay type: cell-based; conditions: CCL21 30 seconds; for ζ PKC translocation to the plasma membrane induced by CCL21: lymphocytes, 30 min pretreatment
Method: ζ PKC intracellular distribution. The assay was performed as previously described. Briefly, lymphocytes were stimulated under stirring with agonists at 37° C. Stimulation was stopped by diluting the cells in a 10 times larger volume of ice-cold PBS. Cells, resuspended in 1 ml of ice-cold PBS containing 8% sucrose, containing the Complete™ protease inhibitor cocktail from Roche, were sonicated and the homogenates were centrifuged at 800×g/10 min to remove nuclei and unbroken cells. The postnuclear supernatant was loaded on discontinuous sucrose gradient (50% sucrose, 30% sucrose) and centrifuged for 120 min. at 100,000×g. The light membrane fraction (plasma membrane) was collected in the 30% layer. Following SDS-PAGE on 10% acrylamide, proteins were electroblotted on nitrocellulose filters, probed with rabbit polyclonal antibodies anti ζ PKC (Santa Cruz Biotechnology), followed by goat polyclonal anti-rabbit HRP conjugated (Sigma) and developed using ECL (Amersham).

[5] = tested on: lymphocyte rolling and arrest on PP-HEV; assay: Intravital video microscopy of lymphocyte-high endothelial venule interaction in Peyer's patches; assay type: in vivo, mouse
Method: Intravital video microscopy analysis of lymphocyte-high endothelial venule interaction in Peyer's patches. Lymphocytes (5×10^6/ml in DMEM without sodium bicarbonate supplemented with 20 mM Hepes, 5% FCS, pH7.1) were labeled with either CMFDA or CMTMR for 30 min at 37° C. 30×10^6 labeled cells were injected iv. In situ videomicroscopic analyses were carried out in high endothelial venules (HEV) in the secondary lymphoid organ Peyer's patch (PP) as previously described. Cell behavior was analyzed over a period of 20-30 min starting at 2 minutes after iv injection. Interactions of ≧1 s were considered significant and were scored. Cells were considered to be interacting whether they rolled, arrested or both. Lymphocytes that remained firmly adherent on venular wall for ≧10 s were considered arrested.

[6] = tested on: autoreactive, encephalitogenic T lymphocytes in inflamed brain microvessels; assay: Intravital microscopy of Ag-stimulated lymphocyte recruitment in inflamed brain microvessels; assay type: in vivo; conditions: mouse model simulating human Multiple Sclerosis
Method: The RhoA derived peptides described in Example 1 were tested for their ability to inhibit Ag-stimulated lymphocyte (autoreactive, encephalitogenic T lymphocytes) recruitment in inflamed brain by looking in vivo cell behavior with intravital microscopy, as described in Example 1. This in vivo model simulates, in mouse, human Multiple Sclerosis.

[7] = target: T2, RhoA binding to Rhotekin-RBD (Homo sapiens, UniProt Q9BST9); assay: Affinity-precipitation (pull-down) of GTP-Val14-RhoA with Rhotekin GST-RBD; conditions: 20 μg of domain, anti-RhoA immunoblot
T2 sequence (Q9BST9 17-98 limits assumed): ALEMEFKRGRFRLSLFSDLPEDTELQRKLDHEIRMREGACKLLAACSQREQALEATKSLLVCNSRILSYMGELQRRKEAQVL
Method: as §1

[8] = tested on: Swiss 3T3 mouse fibroblasts; assay: LPA-induced actin stress fibers and membrane ruffling in fibroblasts; assay type: cell-based; conditions: 4 hours at 37° C. with peptide, then 10 min 25 ng/ml LPA
Method: Evaluation of actin stress fibers content. Swiss 3T3 mouse fibroblasts were maintained in DMEM containing 10% FCS for 6 days and then starved for 12 hours. Actin stress fibers content was evaluated in permeabilized cells with TRITC-labeled phalloidin. Analysis was performed by using a Zeiss LSM confocal microscope.

[9] = tested on: LFA-1 high affinity state; assay: Measurement of LFA-1 high affinity state (soluble 125I-ICAM-1 binding); assay type: cell-based, mouse; conditions: 1 μM CCL21 2 min
Method: Measurement of LFA-1 high affinity state. Induction of LFA-1 high affinity state by CCL21 was evaluated by measuring binding of soluble ^125I-ICAM-1. Briefly, ICAM-1 was iodinated with ^125NaI by the Chizzonite method. The binding assay was performed at 37° C. in a 500 μl Eppendorf tube. 40 μl of lymphocyte suspension (5×10^7/ml in PBS containing 1 mg/ml BSA, 2 mM MgCl2, 1 mM CaCl2, 1 mM D-glucose, pH 7.2) were directly layered on […] oil cushion of 2/1 dibutyl/dioctyl phthalates. Lymphocytes were stimulated with 10 μl of PBS containing chemokine (6 μM) and ^125I-ICAM-1 (5×10^5 CPM corresponding approximately to 2 μg of ^125I-ICAM-1). The binding reaction was stopped by rapid centrifugation in microfuge. Radioactivity bound to lymphocytes was counted with a gamma counter.

[10] = tested on: ζ PKC; assay: Measurement of ζ PKC kinase activity; assay type: cell-based; conditions: 150 nM Wortmannin or 30 μM LY294002, 30 min, lymphocytes
Method: Measurement of ζ PKC kinase activity. The assay was performed as previously described. Briefly, lymphocytes were stimulated under stirring with agonists at 37° C. Stimulation was stopped with lysis buffer containing 50 mM Tris-HCl, pH 7.5, 1% Triton X-100, 0.01% SDS, 150 mM NaCl, 50 mM NaF, 10 mM sodium pyrophosphate, 1 μM phenylarsine oxide, containing the Complete™ protease inhibitor cocktail from Roche. After 30 min. on ice, lysates were centrifuged at 16,000 g for 1 min. to remove cell debris. Rabbit polyclonal anti ζ PKC (1 μg) or control rabbit serum was added to equal amount of cell lysates, followed by immunoprecipitation with trisacryl protein A. Equal amounts of ζ PKC were immunoprecipitated as confirmed by Western blot analysis. After four washing, immunoprecipitates were subjected to the kinase reaction for 30 min. at 30° C. in 50 μl of kinase buffer containing 0.5 mM EGTA, 10 mM MgC2, 20 mM HEPES, pH 7.4, 50 μM ATP, 5 μCi [γ-^32P]ATP and 2 μg myelin basic protein (MBP) as a substrate. The reaction was stopped by addition of 5% TCA and the reaction mixture was filtered through phosphocellulose paper. After four rinses with 1% phosphoric acid radioactivity on the filter was determined at a scintillation counter.

[11] = pretreated lymphocytes injected iv

Molecule | rapid adhesion induced by CCL21 on high density of ICAM-1 [2] | rapid adhesion induced by CCL21 on low density of ICAM-1 [2] | LFA-1 rapid lateral mobility (generation of LFA-1 clusters) induced by CCL21 [3] | ζ PKC translocation to the plasma membrane induced by CCL21 [4] | rolling and arrest of circulating lymphocytes on PP-HEV [5, 11] | LFA-1 high affinity state triggering by CCL21 [9] | prevention of the increase of ζ PKC kinase activity induced by CCL21 [10] | other results
P1-RhoA 23-40: Penetratin-1 fused through a glycine to human RhoA aa 23-40 (IVFSKDQFPEVYVPTVFE, Domain I); aa 34 | blocked adhesion triggering in a dose-dependent manner | prevented in a dose-dependent manner | prevented | blocked |  |  |  | binding of RhoA to Citron [1]: blocked; blockade of ζ PKC translocation to the plasma membrane, densitometric analysis ([4]; 100 μM): about 82%; percentage of cells displaying only rolling on PP-HEV ([5]; 50 μM pretreatment): increased; inhibition of stable arrest of lymphocytes on PP-HEV ([5]; 50 μM pretreatment, P<0.01): about 75%; lymphocyte tethering and interaction with vessels ([5]; pretreated lymphocytes injected iv, 50 μM): did not influence; recruitment/arrest of Ag-stimulated lymphocytes in inflamed brain microvessels [6]: blocks recruitment
P1-RhoA 75-92: Penetratin-1 fused through a glycine to human RhoA aa 75-92 (PDTDVILMCFSIDSPDSL, Domain II); aa 34 | ineffective | unable to block | did not prevent | did not prevent | did not affect |  |  | binding of RhoA to Rhotekin [7]: blocked
P1: Plasma membrane translocating sequence from third helix of Antennapedia homeodomain, RQIKIWFQNRRMKWKK; control peptide [reference compound] | ineffective | unable to block | did not prevent | did not prevent | did not affect | did not prevent |  | accumulation of actin stress fibers upon LPA triggering [8]: completely ineffective
C[C@@H](N)[C@H]1CC[C@H](C(=O)Nc2ccncc2)CC1 [Y27632, reference compound] | did not inhibit | did not inhibit | neither LFA-1 affinity triggering (FIG. 2H) nor induction of lateral mobility were blocked |  | rolled and adhered normally | neither LFA-1 affinity triggering (FIG. 2H) nor induction of lateral mobility were blocked |  | 
COC[C@H]1OC(=O)c2coc3c2[C@@]1(C)C1=C(C3=O)[C@@H]2CCC(=O)[C@@]2(C)C[C@H]1OC(C)=O [Wortmannin] |  |  |  |  |  |  | about 51% | 
O=c1cc(N2CCOCC2)oc2c(-c3ccccc3)cccc12 [LY294002] |  |  |  |  |  |  | ~62% | 
